From patent US8148347B2, “Inhibition of interaction of PSD93 and PSDS95 with nNOS and NMDA receptors” (The Johns Hopkins University, priority 2000, dated 2012) come the findings set out here.

The subject of this series is Male Sprague-Dawley rats. The series is described as follows: radiant heat tail-flick test, baseline and NMDA-induced thermal hyperalgesia. The conditions noted are these: for percentage change of TF latency (baseline tail-flick latency): without NMDA, compared to the control group. Type of series: in vivo, rat. The source says:
To examine whether PSD-95/SAP90 was required for thermal hyperalgesia triggered through NMDA receptor activation, we made an antisense oligonucletide (OND) corresponding to the PDZ domain nucleotides 241 to 258 (5′-[…]-3′; SEQ ID NO: 1) of rat PSD-95/SAP90 mRNA, as well as the sense OND and missense OND (5′-[…]-3′; SEQ ID NO: 2). All of the ONDs were compared to the Gene Bank database (GenBank accession number M96853) and found not to be complementary to any registered nucleotide sequences. The effects of antisense, sense and missense ONDs on baseline and NMDA-induced tail-flick latencies were assessed. […] To identify that NMDA-induced thermal hyperalgesia was produced specifically through NMDA receptor activation but not non-NMDA receptor activation, we observed the effects of a selective NMDA receptor antagonist, MK-801, and a selective non-NMDA receptor antagonist, DNQX, on NMDA-induced facilitation of the tail-flick reflex. […] In addition, motor weakness or dysfunction was not observed in locomotor tests (including placing reflex, grasping reflex and righting reflex) in any of the treated animals including the antisense groups (data not shown).
Animal preparation and behavioral testing. All experiments were carried out with the approval of the Animal Care Committee at the Johns Hopkins University and were consistent with the ethical guidelines of the National Institutes of Health and the International Association for the Study of Pain. Male Sprague-Dawley rats (250-300 g) were implanted with an intrathecal PE-10 catheter into the subarachnoid space at the rostral level of the spinal cord lumbar enlargement through an incision at the atlanto-occipital membrane according to the method as described.^25,27 One week or more later, the rats were injected intrathecally with saline or ONDs every 24 h for 4 days. On the fifth day, saline, NMDA, MK-801+NMDA or DNQX+NMDA was given intrathecally. Nociception was evaluated by the radiant heat tail-flick test. The doses and time point of maximal effect of NMDA used in the present study were determined based on a previous study.^24 The tail-flick apparatus (Model 33B Tail Flick Analgesy Meter, IITC Life Science, Woodland Hills, Calif., USA) generated a beam of radiant heat that was focused on the underside of the tail, 5 cm from the tip. A cut-off time latency of 13.5 s was used to avoid tissue damage to the tail. Nociception was assessed by the time required to induce tail-flick after applying radiant heat to the skin of the tail. The latency of reflexive removal of the tail from the heat was measured automatically to the nearest 0.01 s. Tail-flick latency was measured five times, and the basal latency was defined as the mean. Tail-flick data were expressed as percentage change calculated by the formula: (trial latency−baseline latency)/(baseline latency)×100%. Finally, PE-10 catheter position from each animal was confirmed when lumbar enlargement segments were removed for western blot analysis. PCR analysis of PSD-95/SAP90 in rat spinal cord. The cDNA sequences encoding portions of the PSD-95/SAP90 were amplified using the following synthetic OND primers: PSD1 (5′-[…]-3′; SEQ ID NO: 3) and PSD2 (5′-[…]-3′; SEQ ID NO: 4) for amplification of PSD-95/SAP90 codon positions 789-1525. RNA samples (1 μg) from rat spinal cord, brain and muscle were reverse transcribed to generate first-strand cDNA. The PCR reactions were performed for 25 cycles. Each cycle included 30 s at 94° C., 30 s at 55° C., and 30 s at 71° C. The PCR products were directly cloned into the TA cloning vector (Invitrogen Co., San Diego, Calif., USA) and verified by automatic DNA sequencing. Fusion protein construction and preparation. cDNA sequence encoding portion of PSD-95/SAP90 was amplified by PCR and subcloned in-frame into PGEX-2T (GIBCO, Rockville, Md., USA) via the BamHI and EcoRI restriction digest sites. […]
(Thermal pain tests record how soon the animal reacts.)

Where [1] appears, read: 50 μg/10 μl intrathecal every 24 h for 4 days + NMDA.

Regarding “5′-AAGCCCTTGTTCCCATTT-3′ (DNA, backbone and methylation of C not given here; listed as Rattus rattus) [MS, missense OND control, reference compound]”, the “percentage change of TF latency (baseline tail-flick latency)” value is on record as −2.05±1.57%. Further, the “NMDA-produced facilitation of the tail-flick reflex after pretreatment (attenuated or not)” value (50 μg/10 μl every 24 h for 4 days) is on record as “not”. In addition, the “ΔTF latency (%)” value under setting [1] is on record as −20.96%.

Regarding “5′-TGTGATCTCCTCATACTC-3′ (DNA, backbone and methylation of C not given here; listed as Rattus rattus) [antisense oligonucletide corresponding to the PDZ domain nucleotides 241 to 258 of rat PSD-95/SAP90 mRNA]”, the “percentage change of TF latency (baseline tail-flick latency)” value came out at 0.44±1.95%. For the setting “25 μg intrathecal”, the “prevention of the NMDA-induced decrease of the tail-flick latency” value is given as 55%. Also, for the setting “25 μg/10 μl and 50 μg/10 μl every 24 h for 4 days”, the “NMDA-produced facilitation of the tail-flick reflex after pretreatment” value is reported as “attenuated”. Besides, the “ΔTF latency (%)” value (25 μg/10 μl intrathecal every 24 h for 4 days + NMDA) is listed as −11.65%. In addition, under “50 μg intrathecal”, the “prevention of the NMDA-induced decrease of the tail-flick latency” value amounted to 82%. Moreover, the “ΔTF latency (%)” value under setting [1] is given as −4.72%. In addition, the “tail flick latency in response to NMDA stimulation after recovery” value (recovery for an additional four days after treatment) is given as “returned to normal”.
